This is an account of results in patent US9371330B2, “Substituted pyrazino[1,2-a]pyrimidines useful as CBP/catenin antagonists for enhancing asymmetric division of somatic stem cells” (University of Southern California, priority 2011, dated 2016).

The IC50 is the point on the concentration scale where inhibition reaches its midpoint.

Experiment [1] relates to NOD/SCIDIL2R gamma-/- mice. Description: leukemia mouse model: hair growth and wound healing. It is filed as in vivo. The settings on record: ICG-001 50 mg/kg/d with VDL vs VDL only, 50 mg/kg/day. The protocol: NOD/SCIDIL2R gamma−/− mice were shaved and sublethally irradiated prior intravenous injection of 50,000 cells per animal. Leukemic animals were treated with a combination of intraperitoneally administered vincristine/dexamethasone/L-Aspariginase (VDL) and ICG-001 (50 mg/kg/d), which was delivered via subcutaneous osmotic pumps to ensure stable plasma levels, with VDL only as a control for 20 days. The animals were checked periodically for survival, hair growth, and wound healing.

The test system of experiment [2] is Min mouse. The experiment can be described thus: Min mouse polyps. The settings on record: in vivo. From the text:
Cancer. The importance of Wnt signaling in colorectal cancer is undisputed. Applicant's investigation on the therapeutic utility of ICG-001 therefore quite naturally began with colon cancer.

The subject of experiment [3] is mitotic cells in the ventricular zone (VZ). The experiment can be described thus: symmetric versus asymmetric divisions (Par3 distribution) in the ventricular zone of mouse embryos. It is filed as in vivo. To be noted: topical or oral administration to pregnant mice. The text has this:
Taking advantage of the ready uptake and penetration through the placental barrier of applicant's small molecule Wnt modulators, applicant designed a series of experiments to investigate symmetric versus asymmetric divisions in the ventricular zone (VZ) of the brain during mouse embryonic development. Timed pregnant mice were topically treated for various time periods (1-3 days) with DMSO (vehicle control), the CBP/catenin antagonist ICG-001 or the p300/catenin antagonist IQ-1. Using a previously described protocol (56), the localization of […] (Par3) and DNA was examined in mitotic cells in the VZ. Par3 distributes symmetrically in cells that divide symmetrically and asymmetrically in cells that divide asymmetrically, whereas the DNA distributes symmetrically between the 2 cells. Using fluorescence microscopy, the percentage of mitotic cells dividing symmetrically or asymmetrically could be quantified. […] Antagonizing the CBP/catenin interaction with ICG-001 had no apparent effect yielding similarly, approximately 21% asymmetric divisions. […] Importantly, this decrease in asymmetric divisions upon treatment with IQ-1 could be rescued back essentially to control levels (i.e. ˜21%) by treatment with a 2-fold excess of ICG-001. Even further divergence in symmetric versus asymmetric divisions could be seen upon prolonged treatments. For example, treatment with IQ-1 (i.e., antagonizing p300/catenin interaction leading to increased usage of CBP) for 3 days (E13.5-16.5) decreased asymmetric divisions compared to control from 31% to 7%. […] This reporter mouse expresses EGFP, driven by the Tis21 promoter, in cells that have undergone neurogenic differentiative divisions.
For example, Bultje et al (Bultje R Neuron 63, 189-202, 2009) describe an assay to measure asymmetric distributions in the ventricular zone (vz) to evaluate asymmetric divisions during neurogenesis. Essentially this involves treating the animal (either adult or in utero) for a set period of time with compounds (either p.o., s.c., i.v. or topically) with compounds and then sacrificing the animal and examining the Par3 distribution (e.g., via immunohistochemistry) in mitotic cells vs. DNA distribution (e.g., using DAPI staining) Par3 distributes equally among the two daughter cells during symmetric division and unequally (essentially all in one daughter cell) during asymmetric differentiation.

The target in experiment [4] is CBP/beta-catenin interaction (Homo sapiens, UniProt Q92793). Description: disruption of CBP/beta-catenin interaction. The class given is binding. From the text:
Applicant next mapped the binding domains between CBP and beta-catenin, as well as between p300 and beta-catenin. The C-terminal trans-activating region of beta-catenin (647-781) interacted with the same 1-111 amino acids of both CBP and p300 (23). However, only the interaction between CBP and beta-catenin was disrupted by ICG-001, and not the p300/beta-catenin interaction.

For experiment [5], the system named is aquaporin 1. Description: ex vivo human skin assay, qRT-PCR of aquaporin 1. The class given is cell-based. The settings on record: 24 hrs; 5 uM ICG-001, 5 uM methylated ICG-001, 1 ug/ml RA. The protocol: (§1) Methods. Ex Vivo human skin assay culture conditions were based upon a paper by Varani J et al Experimental and Molecular Pathology, 2004.
(§2) Briefly, human skin (surgical waste from plastic surgery procedures) was obtained and the subcutaneous layer of fat was trimmed manually with a scalpel. The skin was then cut into small fragments about 2 mm square and placed in 6 well plates. 1 ml of keratinocyte culture medium (Gibco 10724-011) with 1% P/S (penstrep antibiotic) was added to each well. The epidermis, bathed in media was placed facing up. On the next day (overnight culture in the media above), the skin fragments were transferred to fresh wells that contained either 5 uM ICG-001, 5-uM methylated ICG-001 or 1 ug/ml of retinoic acid (RA). After 24 hrs, skin samples in culture were removed for RNA isolation and qRT-PCR analysis of genes of interest (e.g. elastin (a gene involved in skin appearance and pliability (e.g., wrinkling) and aquaporin 1, which is involved with hydration.

Experiment [6] concerns elastin. The experiment can be described thus: ex vivo human skin assay, qRT-PCR of elastin. The class given is cell-based. To be noted: 24 hrs; 5 uM ICG-001, 5 uM methylated ICG-001, 1 ug/ml RA. As for the experimental part: as §1, §2
The subject of experiment [7] is Wnt/catenin transcription in SW480 colon carcinoma cells. The experiment can be described thus: TOPFLASH TCF/catenin luciferase reporter. The class given is cell-based. The settings on record: Homo sapiens. The text has this:
ICG-001. Applicant's pharmacologic tools were identified using cell-based forward chemical genomic screens of small molecule secondary structure template chemical libraries (22).

The subject of experiment [8] is PC-12 cells. Description: PC-12 cells with FAD mutant PS-1 (L286V): neuronal differentiation. It is filed as cell-based. The text has this: However, the effects of PS-1 mutations on the stability of beta-catenin, TCF/beta-catenin signaling, and thereby its potential role in AD remain controversial. Applicant has shown that introduction of a FAD mutant PS-1 (L286V) into PC-12 cells causes increased TCF/beta-catenin signaling, leading to the inhibition of neurite outgrowth. […] In the CNS, EpB2 expression is associated with axonal guidance (16). […] In initial in vivo studies, applicant treated penta-transgenic mice that over express mutant APP(695) (Swedish (K670N,M671L), Florida ([…]) and London (V717I)) and PS-1 (M146L and L286V) mutations with ICG-001 for 2 months (months 2-4). These mice normally develop massive cerebral deposition of Aβ starting at 6 weeks of age.

Experiment [9] relates to hair follicle. To be noted: cited from earlier work.

“Also recorded” adds a separate entry of the source.

Chain of CBP/beta-catenin interaction (Q92793 1-111): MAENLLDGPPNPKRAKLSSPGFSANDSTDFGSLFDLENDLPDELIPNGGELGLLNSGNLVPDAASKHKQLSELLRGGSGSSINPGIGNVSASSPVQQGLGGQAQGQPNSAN

For the compound `O=C1[C@H](Cc2ccc(O)cc2)N2C(=O)CCN(C(=O)NCc3ccccc3)[C@H]2CN1Cc1cccc2ccccc12` [ICG-001], the “hair growth on shaved area” value in experiment [1] (within two weeks) was “had regrown their hair; also recorded: substantial hair growth covering the entire previously shaved area”. For the same compound, in experiment [1], the “healing of pump insertion wounds” value is on record as “had substantial improved; also recorded: heal quicker”. For the same compound, the polyps entry in [2] was “reducing polyps”. In experiment [3], the “effect on number of asymmetric divisions” value is listed as “does not affect the number of asymmetric divisions”. Moreover, in experiment [4], the “disruption of the CBP/beta-catenin interaction” value was “disrupted”. Further, the “expression of aquaporin 1” value in experiment [5] was “increase”. Also, in experiment [6], the expression of elastin result was “increase”. The IC50 in experiment [7] worked out at 3000 nM. Further, in experiment [8] (NGF-induced differentiation, vs untreated cells), the GAP43 expression result was “dramatically increased”. In addition, in experiment [8] (PS-1 (L286V) mutant cells), the “neuronal differentiation and neurite outgrowth” value was “rescues the defects in neuronal differentiation and neurite outgrowth”. For the same compound, the survivin expression entry in [9] is listed as “decreased survivin expression”. Moreover, the hair fiber elongation entry in experiment [9] (dose-dependent) is reported as “significantly reduced hair fiber elongation”.
